Key:
miR-122 [1] = assay: psiCHECK-miR122 dual luciferase reporter assay in Huh7 cells; assay type: cell-based, human; conditions: for EC50: Homo sapiens, Huh-7, read-out: EC50 (miR-122 inhibitors, luciferase dose response); for Renilla luciferase expression with psiCHECK-miR122 (in words): Huh7, 10 μM (antagomir transfected), normalized to DMSO; for increase in the relative luciferase signal / relative luciferase units (RLU) normalized to a DMSO control: Huh7, psiCHECK-miR122, 10 μM; for increase in the relative luciferase signal: 48 hours; for relative luciferase units (RLU) normalized to a DMSO control: mean ± SD of three independent assays
Source text: A miRNA small molecule modifier screen for miR-122 was developed based on the psiCHECK-2 (Promega) reporter plasmid (FIG. 9). This construct expresses both Renilla luciferase as well as firefly luciferase, allowing for the normalization of the signal to account for differential cellular viability and variability in transfection efficiency. The miR-122 target sequence was inserted downstream of the Renilla luciferase gene, between the PmeI and SgfI restriction sites. In another aspect of the invention, plasmids expressing luciferase or another reporter gene such as for example, fluorescent reporters (GFP and variants thereof, DsRed, etc.) or beta-galactosidase can be used to screen for small molecule modifiers of miR-122. The mi-122 target sequence may be upstream or downstream of the reporter gene. Multiple miR-122 target sites can also be inserted into or be present in the plasmid.
The presence of mature miR-122 will lead to a decrease in the Renilla luciferase signal (FIG. 1a). The ability to detect endogenous miR-122 was validated by transfecting the generated psiCHECK-miR122 construct into Huh7 and HeLa cells. After 48 hour incubation, the cells were assayed using a Dual Luciferase Assay Kit (Promega). In another embodiment, the cells can be incubated for about 24-96 hours. The Dual Luciferase Assay Kit provides a means to measure the amount of the luciferases by generating a luminescent signal. Using this assay the luminescence from the firefly luciferase reaction may be quenched while the luminescent reaction of Renilla luciferase can be activated. Other assays and procedures that can determine the amount of the one or more reporter genes or miR-122 expression, activity or function can be used. An example of another assay is Dual-Glo Assay (Promega).
The psiCHECK-miR122 vector was then employed in a small molecule screen in Huh7 cells to discover modifiers of miR-122 function. Other cells that express miR-122 such as HepG2 and Hep3B can be used in addition to or instead of Huh7 cells. An increase in the relative Renilla luciferase signal indicates a miR-122 inhibitor, while a reduction in the luciferase signal indicates a miR-122 activator. A genus of compounds that may have activity as modifiers of miR122 function are the Diversity Set II (1364 compounds) from the NCI Developmental Therapeutics Program was screened using Huh7 cells containing the psiCHECK-miR122 reporter. Cells were exposed to the small molecules and the relative luciferase signal was measured after 48 hours using a Dual Luciferase Assay Kit (Promega). In another embodiment the cells can be exposed to the small molecules for about 24-96 hours. As explained above, other assays and procedures that can determine the amount of the one or more reporter genes or miR-122 expression, activity or function can be used.
The analogs were screened for activity using the previously described miR-122 assay. All cells were treated with 10 μM of a compound and experiments were performed in triplicate to ensure statistical validity. The data was normalized to a 1% DMSO control and is reported in relative luciferase units (RLU). The standard deviation was calculated from three independent assays. Some analogs of miR-122 inhibitor compound 1 are:
Huh7 and HeLa cells were transfected at approximately 60% confluency with either the psiCHECK-Control plasmid (the original psiCHECK-2 plasmid containing no known miRNA binding site) or the psiCHECK-miR122 plasmid (0.5 μg) using X-tremGENE transfection reagent (3:2 reagent/DNA ratio; Roche) in Opti-Mem media (Invitrogen). All transfections were performed in triplicate for statistical analysis. The cells were incubated at 37° C. for 4 hours followed by the replacement of transfection media with standard DMEM growth media. After 48 hours of incubation the media was removed, cells were lysed and assayed with a Dual Luciferase Assay Kit (Promega) using a Wallac VICTOR^3V luminometer with a measurement time of 1 s and a delay time of 2 s. […]

miR-122 [2] = assay: quantitative RT PCR of mature miR-122 in Huh7 cells; assay type: cell-based, human; conditions: Huh7, 10 μM, 48 hours
Description: The activity of the small molecule modifiers was analyzed by quantitative RT PCR in order to measure their direct effects on miR-122 expression levels in Huh7 cells. […] All experiments were conducted in triplicate, and the data was normalized to a DMSO control.
Each treatment was conducted in triplicate to ensure statistical validity. Cells were then incubated at 37° C. for 48 hours (DMEM, 5% CO2). The media was removed, and cells were washed with PBS buffer (2×2 mL, pH 7.4) followed by RNA isolation with the mirPremier™ microRNA Isolation Kit (Aldrich). The RNA was quantified using a Nanodrop ND-1000 spectrophotometer and 10 ng of each RNA sample was reverse transcribed using the TaqMan™ microRNA Reverse Transcription Kit (Applied Biosystems) in conjunction with either the miR-122 or miR-21 TaqMan™ RT primer (16° C., 30 min; 42° C., 30 min; 85° C., 5 min). Quantitative Real Time PCR was conducted with a TaqMan™ 2× Universal PCR Master Mix and the appropriate TaqMan™ miRNA assay (Applied Biosystems) on a BioRad MyiQ RT-PCR thermocycler (1.3 μL RT PCR product; 95° C., 10 min; followed by 40 cycles of 95° C., 15 s; 60° C. 60 s). Threshold cycles were used to determine miRNA copy numbers, and the levels of miR-122 and miR-21 were compared via determination of threshold cycle (Ct) and conversion to copy number (copy number=10[(Ct−37.4)/−3.3]).^17 The data was then normalized to the DMSO control. The samples were also analyzed by real time PCR for the presence of pri-miR-122 transcript using the previously described primers (5′ […] 3′ (SEQ ID NO:5) and 5′ […] 3′ (SEQ ID NO:6); IDT DNA) and iQ SYBR Green Supermix for the real time PCR (95° C., 3 min; followed by 40 cycles of 95° C., 15 s; 60° C. 60 s).^14

Compound | EC50 (miR-122 [1]) [µM] | Renilla luciferase expression with psiCHECK-miR122 (in words) (miR-122 [1]) | increase in the relative luciferase signal (miR-122 [1]) [%] | relative luciferase units (RLU) normalized to a DMSO control (miR-122 [1]) [RLU] | knock-down of mature miR-122 levels relative to DMSO treated cells (miR-122 [2]) [%]
O=C(Nc1ccc2ccccc2c1)c1ccc(Cl)cc1Cl [Compound 1] | 7.73 ± 0.38 | significant increase | 773±38 | 7.73±0.38 | 45
O=S(=O)(c1ccc2c(c1)CCCN2)N1CCC[C@H]2CCCC[C@@H]21 [Compound 2] | 12.5 ± 1.25 | significant increase | 1251±125 | 12.51±1.25 | 72

Source: patent US20130005759A1, “SMALL MOLECULE MODIFIERS OF MICRORNA MIR-122” (North Carolina State University, priority 2010, published 2013)
